Patent US9181263B2, “Inhibitors of bruton's tyrosine kinase” (PHARMACYCLICS, INC., priority 2007, dated 2015)
“Also recorded” adds a separate entry of the source. Values belong to the compound of their own block, whether it stands above or below them.

Assays:
[1] = Glutathione binding assay; format: physicochemical; conditions: 5 mM glutathione, 10 μM inhibitor, potassium phosphate buffer, room temperature, HPLC
Experimental: A calculated value (e.g (1/Btk IC50)/Glutathione conjugation rate) as shown in the Table 2) is used to compare compounds for their ratio between potency at inhibiting their target and their non-specific binding to other SH groups, such as those in glutathione. […] Calculated ratios such as these are used to quantitatively compare different compounds and select compounds for further study.
For the glutathione binding assays, 5 mM glutathione, 10 μM Btk inhibitor in DMSO (10 μL) and 6 equivalents of N′N′ Diisopropyl ethyl amine were combined in 1 mL potassium phosphate buffer. The mixture was incubated for 0, 15, 60 minutes at room temperature and the reaction was stopped with 10 equivalents of formic acid. 50 μL of each reaction mixture was injected on HPLC (Mobil Phase A: 0.2% formic acid in water, Mobile Phase B: 0.2% formic acid in acetonitrile, HPLC Column: Metasil Basic 3μ, 150×4.6 mm, 10% B, Gradient: 10% to 90% B, Detection: UV/Vis […]). Rate of reaction was reported as nmole GSH conjugate conversion per minute from the normalized ratio for area under the curve from HPLC chromatograms for both GSH conjugate and the parent.

[2] = Plasma concentrations after oral dosing of rats; format: in vivo, male jugular vein cannulated rats; conditions: rat plasma, single 8 mg/kg dose by oral gavage, dosed in combination
Experimental: Blood samples were collected at 0.0833 (5 minutes), 0.333 (20 minutes), 1, 3, 6, 9, and 24 hours post-dosing from orally dosed rats.
Male jugular vein cannulated rats were administered a single dose of all test compounds at 8 mg/kg each, in combination by oral gavage. Dose volumes were adjusted based on body weight data collected immediately prior to dosing. Blood samples were collected at 0.0833 (5 minutes), 0.333 (20 minutes), 1, 3, 6, 9, and 24 hours post-dosing from orally dosed rats. The samples were collected into plasma separator Microtainer tubes with anticoagulant (lithium heparin). Plasma samples were prepared by centrifugation (5 min at 5000×g), and at least 100 μL were transferred to storage tubes and stored frozen at −80° C. Plasma samples were thawed and 75 uL aliquots were transferred to centrifuge tubes to which 10 μL aliquots of internal standard solution (1 μg/mL) were added. The samples were not diluted with blank plasma prior to further processing. Soluble proteins were precipitated by the addition of 200 μL of acetonitrile, followed by centrifugation (20 min at 16,000×g). The samples were evaporated to dryness and reconstituted in 200 μL of water containing 0.2% formic acid and 10% methanol. All samples were loaded onto an autosampler maintained at 6° C. and evaluated for concentrations of test compounds using LC-MS/MS.

[3] = system: collagen-induced arthritis (paw inflammation); assay: Collagen-induced arthritis in the mouse; format: in vivo, male DBA/1OlaHsd mice
Experimental: […]. Compound for vehicle was dosed orally once per day starting at day 1. Dexamethasone was included as a positive control. Paw inflammation was scored from 0-5 and averaged across all paws from all animals for each group in the study.
. After paw inflammation was established, animals were randomized and Compound for vehicle was dosed orally once per day starting at day 1. Paw inflammation was scored from 0-5 and averaged across all paws from all animals for each group in the study. […] Dexamethasone was included as a positive control.

[4] = system: pERK / BCR signal transduction pathway in DOHH2 cells; assay: BCR pathway phosphorylation (phospho-specific antibodies) in DOHH2; format: cell-based
Description: (§1) To identify biomarkers that correlate with response to Compound 1, phosphorylation events in the BCR signal transduction pathway were investigated.
(§2) However, when we examined basal phosphorylation levels, we found higher basal phosphorylation in DOHH2 compared to Ramos, with phospho-ERK in particular indicating higher levels of basal or tonic signaling in DOHH2.

[5] = system: pERK / BCR signal transduction pathway in Ramos cells; assay: BCR pathway phosphorylation (phospho-specific antibodies) in Ramos; format: cell-based
Description: as §1, §2

BTK = BTK (Homo sapiens (Human), UniProt Q06187); assay: HotSpot kinase assay, BTK; format: biochemical; conditions: purified enzyme, 33P-ATP, 1 uM ATP
BTK, sequence (Q06187 whole entry): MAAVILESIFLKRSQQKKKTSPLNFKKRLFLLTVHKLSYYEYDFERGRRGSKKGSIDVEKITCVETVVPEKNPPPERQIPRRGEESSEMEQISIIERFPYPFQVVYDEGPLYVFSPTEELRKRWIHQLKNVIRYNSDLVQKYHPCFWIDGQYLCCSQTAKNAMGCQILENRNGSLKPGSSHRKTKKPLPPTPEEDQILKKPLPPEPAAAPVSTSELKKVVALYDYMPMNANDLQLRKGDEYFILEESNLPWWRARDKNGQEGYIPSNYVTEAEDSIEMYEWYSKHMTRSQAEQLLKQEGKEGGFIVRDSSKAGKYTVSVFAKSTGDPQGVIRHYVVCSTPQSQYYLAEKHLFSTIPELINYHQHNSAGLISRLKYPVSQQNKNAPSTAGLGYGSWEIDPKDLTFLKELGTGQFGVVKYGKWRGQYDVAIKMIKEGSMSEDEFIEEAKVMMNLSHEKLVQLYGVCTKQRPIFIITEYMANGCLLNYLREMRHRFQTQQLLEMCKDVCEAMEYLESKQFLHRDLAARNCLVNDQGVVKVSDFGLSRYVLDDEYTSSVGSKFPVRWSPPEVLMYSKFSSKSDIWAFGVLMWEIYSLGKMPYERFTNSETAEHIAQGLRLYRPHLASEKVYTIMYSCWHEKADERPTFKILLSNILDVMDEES

Egr-1 = assay: Expression of ERK transcriptional target Egr-1; format: cell-based; conditions: 1 uM
EGFR = EGFR (Homo sapiens (Human), UniProt P00533); assay: HotSpot kinase assay, EGFR; format: biochemical; conditions: purified enzyme, 33P-ATP, 1 uM ATP; printed EFGR in Table 1
EGFR, sequence (P00533 25-1210): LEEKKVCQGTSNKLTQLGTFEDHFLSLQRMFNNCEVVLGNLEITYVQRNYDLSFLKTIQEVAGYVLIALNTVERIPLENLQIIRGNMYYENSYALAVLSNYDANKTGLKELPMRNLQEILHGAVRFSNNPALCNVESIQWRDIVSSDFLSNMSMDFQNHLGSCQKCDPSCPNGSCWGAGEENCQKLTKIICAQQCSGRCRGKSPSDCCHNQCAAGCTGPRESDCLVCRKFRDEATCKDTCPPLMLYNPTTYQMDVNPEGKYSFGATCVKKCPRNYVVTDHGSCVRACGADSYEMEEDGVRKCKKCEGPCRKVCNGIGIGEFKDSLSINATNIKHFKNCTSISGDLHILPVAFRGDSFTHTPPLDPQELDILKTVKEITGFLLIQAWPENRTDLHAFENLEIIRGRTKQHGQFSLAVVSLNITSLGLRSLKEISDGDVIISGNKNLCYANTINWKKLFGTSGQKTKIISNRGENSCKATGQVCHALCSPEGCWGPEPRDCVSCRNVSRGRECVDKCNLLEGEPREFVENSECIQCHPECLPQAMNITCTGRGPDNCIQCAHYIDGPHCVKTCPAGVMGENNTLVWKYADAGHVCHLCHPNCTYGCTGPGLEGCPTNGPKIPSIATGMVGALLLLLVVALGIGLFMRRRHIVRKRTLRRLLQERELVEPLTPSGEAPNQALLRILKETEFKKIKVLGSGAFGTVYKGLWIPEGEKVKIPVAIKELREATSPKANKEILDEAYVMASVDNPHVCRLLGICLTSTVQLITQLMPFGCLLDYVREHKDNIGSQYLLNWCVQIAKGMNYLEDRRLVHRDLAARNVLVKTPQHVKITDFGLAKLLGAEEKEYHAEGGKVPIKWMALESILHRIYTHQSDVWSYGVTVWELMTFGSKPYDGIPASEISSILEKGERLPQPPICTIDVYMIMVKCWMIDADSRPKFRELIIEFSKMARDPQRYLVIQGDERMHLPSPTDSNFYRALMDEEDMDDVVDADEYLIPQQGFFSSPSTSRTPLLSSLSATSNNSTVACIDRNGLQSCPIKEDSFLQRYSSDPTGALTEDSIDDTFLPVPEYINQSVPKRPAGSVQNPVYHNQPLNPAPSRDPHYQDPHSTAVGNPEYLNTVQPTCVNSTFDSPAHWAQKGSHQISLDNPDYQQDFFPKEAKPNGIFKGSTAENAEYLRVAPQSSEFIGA

[6] = molecular target: panel of greater than 100 kinases (Tec family kinases including Btk, Src family kinases); assay: In vitro profiling against a panel of greater than 100 kinases; format: biochemical
Description: By way of example only and in some embodiments, the observed potency, selectivity, and cell permeability of compounds such as Compound 2 are appropriate to incorporate these molecules into a Kinase-targeted, activity based probe that allows direct visualization of Kinase activity in intact cells. […] Without limiting the scope of the compositions and methods described herein, it is postulated that the structural basis for the selectivity is covalent modification of a non-catalytic cysteine residue (Cys 481 in Btk) that is conserved in the ATP binding pocket of the Tec family and several other kinases.

[7] = system: Btk expressing B cell lymphoma cell lines; assay: Panel of nine Btk expressing B cell lymphoma cell lines, sensitivity vs basal pERK; format: cell-based
Experimental: (§3) After 72 hours, cell number was measured using Alamar Blue using manufacturer's protocol. A dilution series of untreated cells was run in parallel to verify that the Alamar Blue assay reliably reflected cell number and that growth conditions were not limiting. […] GI50 values were confirmed in two or more separate experiments for each cell line.
A panel of nine Btk expressing B cell lymphoma cell lines was screened for basal pERK levels.

lymphoma cell lines = assay: In vitro cell proliferation, variety of lymphoma cell lines; format: cell-based; conditions: 72 hours
Experimental: as §3

mast cell degranulation = assay: Mouse passive cutaneous anaphylaxis model; format: in vivo, mice; conditions: single oral dose, increasing doses, 1 hour before DNP-BSA challenge
Experimental: FIG. 4 presents an illustrative bar graph showing inhibition of mast cell degranulation in a mouse passive cutaneous anaphylaxis model. […] After one hour, animals were challenged with an intravenous injection of DNP-BSA and Evans Blue dye and the area of extravasation was measured.
Mice were sensitized with an intradermal injection of monoclonal anti-DNP-IgE in the back. […] After one hour, animals were challenged with an intravenous injection of DNP-BSA and Evans Blue dye. Mast cell degranulation leads to vascular permeability and the distribution of the dye into the skin of the back. The area of extravasation after 1 hour is measured.

[8] = system: MRL/lpr model of lupus (proteinuria); assay: Mouse MRL/lpr model of lupus; format: in vivo, MRL/lpr mice
Description: FIG. 3 presents an illustrative line graph showing inhibition of disease progression in a mouse MRL/lpr model of lupus.

DOHH2 xenograft = assay: DOHH2 lymphoma xenograft model; format: in vivo; conditions: DOHH2 xenograft in SCID mice, dosed orally
DLCL2 xenograft = assay: DLCL2 lymphoma xenograft model; format: in vivo; conditions: DLCL2 xenograft in SCID mice, dosed orally
Ramos cells = assay: Cell proliferation, Ramos cell line; format: cell-based
Experimental: as §3, §1

normal human B cells = assay: B cell activation after brief exposure and washout (CD69); format: cell-based; conditions: 1 hour exposure, washed three times, then IgM F(ab')2 stimulation for 18 hours
Experimental: (§4) B cells were purified from blood from healthy donors by negative selecting using the RosetteSep Human B cell enrichment cocktail. […] After incubation for 1 hour at 37° C., cells were washed three times using an 8-fold dilution in growth media for each wash. Cells were then stimulated with IgM F(ab′)2 for 18 hours at 37° C., stained with anti-CD69-PE antibody and analyzed by flow cytometry.
as §4, with “stimulated with 10 ug/ml of IgM F(ab′)2” for “stimulated with IgM F(ab′)2”, “at 37° C. Cells were then stained with” for “at 37° C., stained with”, “by flow cytometry using standard conditions.” for “by flow cytometry.”

[9] = 12.5 mg/kg orally once per day, to day 11
[10] = 50 mg/kg orally once per day, to day 11

Glutathione Conj Rate [1]: 0.01 nmol/min
in vivo half-life [2]: significantly longer in vivo half-life
SMILES: CN(C)C/C=C/C(=O)N1CCC(n2nc(-c3ccc(Oc4ccccc4)cc3)c3c(N)ncnc32)CC1 [Compound 7, (E)-1-(4-(4-amino-3-(4-phenoxyphenyl)-1H-pyrazolo[3,4-d]pyrimidin-1-yl)piperidin-1-yl)-4-(dimethylamino)but-2-en-1-one]

Glutathione Conj Rate [1]: 0.0243 nmol/min
SMILES: CC#CC(=O)N1CCC[C@@H](n2nc(-c3ccc(Oc4ccccc4)cc3)c3c(N)ncnc32)C1 [Compound 17, 1-((R)-3-(4-amino-3-(4-phenoxyphenyl)-1H-pyrazolo[3,4-d]pyrimidin-1-yl)piperidin-1-yl)but-2-yn-1-one]

Glutathione Conj Rate [1]: 0.014 nmol/min
SMILES: CC#CC(=O)N[C@H]1CC[C@@H](n2nc(-c3ccc(Oc4ccccc4)cc3)c3c(N)ncnc32)CC1 [Compound 22, N-((1s,4s)-4-(4-amino-3-(4-phenoxyphenyl)-1H-pyrazolo[3,4-d]pyrimidin-1-yl)cyclohexyl)but-2-ynamide]

Glutathione Conj Rate [1]: 0.004 nmol/min
SMILES: Nc1ncnc2c1c(-c1ccc(Oc3ccccc3)cc1)nn2C1CCCN(C(=O)/C=C/CN2CCOCC2)C1 (centres unmarked) [Compound 5, (E)-1-(3-(4-amino-3-(4-phenoxyphenyl)-1H-pyrazolo[3,4-d]pyrimidin-1-yl)piperidin-1-yl)-4-morpholinobut-2-en-1-one]

Glutathione Conj Rate [1]: 0.004361 nmol/min
in vivo half-life [2]: short half-life in vivo
SMILES: CN(C)C/C=C/C(=O)N1CCC[C@H]1Cn1nc(-c2ccc(Oc3ccccc3)cc2)c2c(N)ncnc21 [Compound 12, (E)-1-((S)-2-((4-amino-3-(4-phenoxyphenyl)-1H-pyrazolo[3,4-d]pyrimidin-1-yl)methyl)pyrolidin-1-yl)-4-(dimethylamino)but-2-en-1-one]

Glutathione Conj Rate [1]: 0.39 nmol/min
SMILES: C=CC(=O)N1CCC(n2nc(-c3ccc(Oc4ccccc4)cc3)c3c(N)ncnc32)CC1 [Compound 6]

GI50 ([7]; 5 of the seven lines with significantly higher basal pERK): < 1.3 µM
Glutathione Conj Rate [1]: 0.398 nmol/min
in vivo half-life [2]: short half-life in vivo
SMILES: C=CC(=O)N1CCC[C@@H](n2nc(-c3ccc(Oc4ccccc4)cc3)c3c(N)ncnc32)C1 [Compound 1]
sensitivity of cell lines to compound ([7]; the two cell lines with low pERK levels): resistant
paw inflammation ([3]; 3.125 mg/kg orally once per day, to day 11): significantly reduced the increase in paw inflammation
paw inflammation ([3]; 12.5 mg/kg intermittent dosing: days 1, 2, 3 or days 9, 10, 11 of an 11-day period): reduced the increase in paw inflammation
paw inflammation [3, 9]: regressed inflammation
paw inflammation [3, 10]: regressed inflammation
lymphoma tumor cell growth (lymphoma cell lines): inhibits lymphoma tumor cell growth
BCR-stimulus induced phosphorylation events ([4]; DOHH2, anti-IgM or anti-IgG cross-linking): inhibits most BCR-stimulus induced phosphorylation events
amount of Evans Blue release (area of extravasation) (mast cell degranulation): significantly decrease the amount of Evans Blue release
proteinuria (urine protein levels) ([8]; 3.125 mg/kg orally once per day until 20 weeks of age): significantly reduced proteinuria
proteinuria (urine protein levels) ([8]; 12.5 mg/kg orally once per day until 20 weeks of age): significantly reduced proteinuria
proteinuria (urine protein levels) ([8]; 50 mg/kg orally once per day until 20 weeks of age): significantly reduced proteinuria
tumor growth (DOHH2 xenograft): inhibition of tumor growth; also recorded: inhibits tumor growth
tumor growth (DLCL2 xenograft): inhibition of tumor growth; also recorded: inhibits tumor growth
BCR-stimulus induced phosphorylation events ([5]; Ramos, anti-IgM or anti-IgG cross-linking): inhibits most BCR-stimulus induced phosphorylation events
sensitivity of cell line to compound (Ramos cells): resistant
B cell activation (CD69) (normal human B cells): sufficient to inhibit B cell activation

The next lines start with the compound.

SMILES: C=CC(=O)N[C@H]1CC[C@@H](n2nc(-c3ccc(Oc4ccccc4)cc3)c3c(N)ncnc32)CC1 [Compound 9]
paw inflammation [3, 9]: reduced the increase in paw inflammation
paw inflammation [3, 10]: reduced the increase in paw inflammation

SMILES: Nc1ncnc2c1c(-c1ccc(Oc3ccccc3)cc1)nn2C1CCCN(C(=O)/C=C/c2c[nH]cn2)C1 (centres unmarked) [Compound 4]
IC50 ([4]; unstimulated DOHH2 cells (basal), read-out: pERK levels IC50): < 0.01 µM
decrease of pERK levels ([5]; unstimulated Ramos cells (basal)): not
IC50 (BTK): 0.0222 µM
time to reduced Egr-1 expression (Egr-1): ≤ 1 h
maximal downregulation of Egr-1 expression (Egr-1; achieved by 4 hr): 10 fold

SMILES: CN(C/C=C/C(=O)N1CCCC(n2nc(-c3ccc(Oc4ccccc4)cc3)c3c(N)ncnc32)C1)CCO (centres unmarked) [Compound 3]
IC50 (EGFR): 0.0745 µM
IC50 (BTK): 0.0021 µM

SMILES: CN(C)C/C=C/C(=O)N1CCC[C@@H](n2nc(-c3ccc(Oc4ccccc4)cc3)c3c(N)ncnc32)C1 [Compound 2]
kinase panel profile [6]: highly potent and selective inhibitor of Tec family kinases, including, Btk, as well as Src family kinases

SMILES: CN(C)C/C=C/C(=O)N[C@H]1CC[C@@H](n2nc(-c3ccc(Oc4ccccc4)cc3)c3c(N)ncnc32)CC1 [Compound 8, (E)-N-((1s,4s)-4-(4-amino-3-(4-phenoxyphenyl)-1H-pyrazolo[3,4-d]pyrimidin-1-yl)cyclohexyl)-4-(dimethylamino)but-2-enamide]
in vivo half-life [2]: significantly longer in vivo half-life
